Source: patent US9169199B2, “Cycloalkyl guanidine F1F0-ATPase inhibitors and therapeutic uses thereof” (Lycera Corporation, priority 2010, dated 2015)

Legend:
Ramos cells = assay: Cytotoxicity in Ramos cells; assay type: cell-based; conditions: Homo sapiens, read-out: Ramos cell EC50
Protocol: (§1) Compounds in Example 4 above were tested for activity against F1F0-ATPase by measuring ATP synthesis. In addition, the compounds were assessed for cytotoxicity in Ramos cells. Inhibition of ATP synthesis by the F1F0-ATPase and cytotoxicity in Ramos cells were measured according to the procedures described in K. M. Johnson et al. Chemistry & Biology 2005, 12, 485-496.

F1F0-ATPase = biological target: T1, F1F0-ATPase (Bos taurus, UniProt P13621); assay: Inhibition of ATP synthesis by the F1F0-ATPase; assay type: biochemical
T1 construct: from tissue
Protocol: as §1

Row | IC50 (F1F0-ATPase) [µM] | Compound | EC50 (Ramos cells) [µM]
1 | < 10 | CCOC(=O)N[C@H]1CC[C@H](N/C(=N\C(=O)c2ccc(F)c(F)c2)Nc2ccccc2C2CC2)CC1 [Compound 66] | < 10
2 | < 10 | O=C(/N=C(/Nc1ccccc1C1CC1)N[C@H]1CC[C@H](Nc2ncccn2)CC1)c1ccc(F)c(F)c1 [Compound 67] | > 10
3 | < 10 | O=C(/N=C(/Nc1ccc(Cl)c(F)c1)N[C@H]1CC[C@H](O)CC1)c1ccc(C(F)(F)F)cc1 [Compound 68] | < 10
4 | < 10 | O=C(/N=C(/Nc1cccc(Cl)c1F)N[C@H]1CC[C@H](O)CC1)c1ccc(C(F)(F)F)cc1 [Compound 69] | < 10
5 | < 10 | O=C(Cc1ccc(Cl)cc1)/N=C(\Nc1cc(F)cc(Cl)c1)N[C@H]1CC[C@H](O)CC1 [Compound 71] | > 10
6 | < 10 | O=C(/N=C(/NCc1ccc(Cl)cc1F)N[C@H]1CC[C@H](Nc2ncccn2)CC1)c1ccc(F)c(F)c1 [Compound 72] | < 10
7 | < 10 | O=C(/N=C(/NCc1ccc(F)cc1Cl)N[C@H]1CC[C@H](Nc2ncccn2)CC1)c1ccc(F)c(F)c1 [Compound 73] | < 10
8 | < 10 | O=C(/N=C(/NCc1ccc(F)c(Cl)c1)N[C@H]1CC[C@H](Nc2ncccn2)CC1)c1ccc(F)c(F)c1 [Compound 74] | < 10
9 | < 10 | O=C(/N=C(/NCc1ccc(Cl)c(F)c1)N[C@H]1CC[C@H](Nc2ncccn2)CC1)c1ccc(F)c(F)c1 [Compound 75] | < 10
10 | < 10 | CCOC(=O)N[C@H]1CC[C@H](N/C(=N\C(=O)c2ccc(F)c(F)c2)NC2CCCCC2)CC1 [Compound 76] | > 10
11 | < 10 | CCOC(=O)N[C@H]1CC[C@H](N/C(=N\C(=O)c2ccc(F)c(F)c2)NC2CCC(C)CC2)CC1 (stereo partly shown) [Compound 77] | < 10
12 | < 10 | CC(C)(C)OC(=O)N[C@H]1CC[C@H](N/C(=N\C(=O)c2ccc(F)c(F)c2)Nc2cccc(Cl)c2)CC1 [Compound 78] | < 10
13 | > 10 | N[C@H]1CC[C@H](N/C(=N\C(=O)c2ccc(F)c(F)c2)Nc2cccc(Cl)c2)CC1 [Compound 79] | < 10
14 | > 10 | CCOC(=O)N[C@H]1CC[C@H](N/C(=N\C(=O)c2ccc(F)c(F)c2)Nc2cc(C(C)(C)C)on2)CC1 [Compound 80] | > 10
15 | < 10 | CCOC(=O)N[C@H]1CC[C@H](N/C(=N\C(=O)c2ccc(F)c(F)c2)Nc2ccc(F)c(Cl)c2)CC1 [Compound 81] | < 10
16 | < 10 | CCOC(=O)N[C@H]1CC[C@H](N/C(=N\C(=O)c2ccc(F)c(F)c2)Nc2cccc(Cl)c2F)CC1 [Compound 82] | < 10
17 | < 10 | O=C(/N=C(/Nc1ccc(F)c(Cl)c1)N[C@H]1CC[C@H](Nc2ncccn2)CC1)c1ccc(F)c(F)c1 [Compound 83] | < 10
18 | < 10 | O=C(/N=C(/Nc1cccc(Cl)c1F)N[C@H]1CC[C@H](Nc2ncccn2)CC1)c1ccc(F)c(F)c1 [Compound 84] | > 10

More lines, now with the values behind:

Row | Compound | IC50 (F1F0-ATPase) [µM] | EC50 (Ramos cells) [µM]
19 | O=C(/N=C(/Nc1ccccc1C1CC1)N[C@H]1CC[C@H](O)CC1)c1ccc(C(F)(F)F)cc1 [Compound 21] | < 10 | < 10
20 | O=C(/N=C(/Nc1ccccc1C1CC1)N[C@H]1CC[C@H](O)CC1)c1ccc(Cl)cc1 [Compound 22] | > 10 | > 10
21 | O=C(/N=C(/Nc1ccccc1C1CC1)N[C@H]1CC[C@H](O)CC1)c1ccc(F)c(F)c1 [Compound 23] | > 10 | > 10
22 | O=C(/N=C(/Nc1cccc(C(F)(F)F)c1)N[C@H]1CC[C@H](O)CC1)c1cccc(Cl)c1 [Compound 24] | < 10 | < 10
23 | O=C(/N=C(/Nc1cccc(Cl)c1)N[C@H]1CC[C@H](O)CC1)c1cccc(Cl)c1 [Compound 25] | > 10 | < 10
24 | O=C(/N=C(/Nc1cccc(Cl)c1)N[C@H]1CC[C@H](O)CC1)c1ccc(Cl)cc1 [Compound 27] | > 10 | < 10
25 | O=C(/N=C(/Nc1cc(F)cc(Cl)c1)N[C@H]1CC[C@H](O)CC1)c1ccc(Cl)cc1 [Compound 28] | > 10 | < 10
26 | O=C(/N=C(/Nc1cccc(C(F)(F)F)c1)N[C@H]1CC[C@H](O)CC1)c1ccc(Cl)cc1 [Compound 29] | < 10 | < 10
27 | O=C(/N=C(/Nc1cccc(C(F)(F)F)c1)N[C@H]1CC[C@H](O)CC1)c1cccc(C(F)(F)F)c1 [Compound 30] | < 10 | < 10
28 | O=C(/N=C(/NCc1ccc(Cl)cc1)N[C@H]1CC[C@H](O)CC1)c1ccc(F)c(F)c1 [Compound 31] | > 10 | > 10
29 | O=C(/N=C(/NCc1cccc(C(F)(F)F)c1)N[C@H]1CC[C@H](O)CC1)c1ccc(F)c(F)c1 [Compound 33] | > 10 | < 10
30 | O=C(/N=C(/NCc1ccc(C(F)(F)F)cc1)N[C@H]1CC[C@H](O)CC1)c1ccc(F)c(F)c1 [Compound 34] | > 10 | < 10
31 | O=C(/N=C(/NCc1ccccc1F)N[C@H]1CC[C@H](O)CC1)c1ccc(F)c(F)c1 [Compound 35] | > 10 | > 10
32 | O=C(/N=C(/NCc1cccc(F)c1)N[C@H]1CC[C@H](O)CC1)c1ccc(F)c(F)c1 [Compound 36] | > 10 | > 10
33 | O=C(/N=C(/NCc1ccc(F)cc1)N[C@H]1CC[C@H](O)CC1)c1ccc(F)c(F)c1 [Compound 37] | > 10 | > 10
34 | O=C(/N=C(/NCc1cc(F)ccc1F)N[C@H]1CC[C@H](O)CC1)c1ccc(F)c(F)c1 [Compound 38] | > 10 | > 10
35 | O=C(/N=C(/NCc1ccc(F)c(F)c1)N[C@H]1CC[C@H](O)CC1)c1ccc(F)c(F)c1 [Compound 39] | > 10 | < 10
36 | O=C(/N=C(/NCc1cccc(F)c1F)N[C@H]1CC[C@H](O)CC1)c1ccc(F)c(F)c1 [Compound 40] | > 10 | > 10
37 | O=C(/N=C(/NCc1ccc(F)cc1F)N[C@H]1CC[C@H](O)CC1)c1ccc(F)c(F)c1 [Compound 41] | > 10 | > 10
38 | O=C(/N=C(/NCc1cc(F)cc(F)c1)N[C@H]1CC[C@H](O)CC1)c1ccc(F)c(F)c1 [Compound 42] | > 10 | > 10
39 | O=C(/N=C(/NCc1ccc(F)cc1Cl)N[C@H]1CC[C@H](O)CC1)c1ccc(F)c(F)c1 [Compound 43] | > 10 | > 10

Row | Compound | IC50 (F1F0-ATPase) [µM] | EC50 (Ramos cells) [µM]
40 | O=C(/N=C(/NCc1ccc(F)c(Cl)c1)N[C@H]1CC[C@H](O)CC1)c1ccc(F)c(F)c1 [Compound 44] | > 10 | < 10
41 | O=C(/N=C(/NCc1ccc(Cl)c(F)c1)N[C@H]1CC[C@H](O)CC1)c1ccc(F)c(F)c1 [Compound 45] | < 10 | < 10
42 | O=C(/N=C(/NCc1ccc(Cl)cc1F)N[C@H]1CC[C@H](O)CC1)c1ccc(F)c(F)c1 [Compound 46] | > 10 | < 10
43 | CCOC(=O)N[C@H]1CC[C@H](N/C(=N\C(=O)c2ccc(F)c(F)c2)NCc2ccccc2Cl)CC1 [Compound 47] | < 10 | < 10
44 | CCOC(=O)N[C@H]1CC[C@H](N/C(=N\C(=O)c2ccc(F)c(F)c2)NCc2cccc(Cl)c2)CC1 [Compound 48] | < 10 | < 10
45 | CCOC(=O)N[C@H]1CC[C@H](N/C(=N\C(=O)c2ccc(F)c(F)c2)NCc2ccc(Cl)cc2)CC1 [Compound 49] | < 10 | < 10
46 | CCOC(=O)N[C@H]1CC[C@H](N/C(=N\C(=O)c2ccc(F)c(F)c2)NCc2ccccc2C(F)(F)F)CC1 [Compound 50] | < 10 | < 10
47 | CCOC(=O)N[C@H]1CC[C@H](N/C(=N\C(=O)c2ccc(F)c(F)c2)NCc2cccc(C(F)(F)F)c2)CC1 [Compound 51] | < 10 | < 10
48 | CCOC(=O)N[C@H]1CC[C@H](N/C(=N\C(=O)c2ccc(F)c(F)c2)NCc2ccc(C(F)(F)F)cc2)CC1 [Compound 52] | < 10 | < 10
49 | CCOC(=O)N[C@H]1CC[C@H](N/C(=N\C(=O)c2ccc(F)c(F)c2)NCc2ccccc2F)CC1 [Compound 53] | < 10 | < 10
50 | CCOC(=O)N[C@H]1CC[C@H](N/C(=N\C(=O)c2ccc(F)c(F)c2)NCc2cccc(F)c2)CC1 [Compound 54] | < 10 | < 10
51 | CCOC(=O)N[C@H]1CC[C@H](N/C(=N\C(=O)c2ccc(F)c(F)c2)NCc2cc(F)ccc2F)CC1 [Compound 55] | < 10 | < 10
52 | CCOC(=O)N[C@H]1CC[C@H](N/C(=N\C(=O)c2ccc(F)c(F)c2)NCc2ccc(F)c(F)c2)CC1 [Compound 56] | < 10 | < 10
53 | CCOC(=O)N[C@H]1CC[C@H](N/C(=N\C(=O)c2ccc(F)c(F)c2)NCc2cccc(F)c2F)CC1 [Compound 57] | < 10 | < 10
54 | CCOC(=O)N[C@H]1CC[C@H](N/C(=N\C(=O)c2ccc(F)c(F)c2)NCc2ccc(F)cc2F)CC1 [Compound 58] | < 10 | < 10
55 | CCOC(=O)N[C@H]1CC[C@H](N/C(=N\C(=O)c2ccc(F)c(F)c2)NCc2cc(F)cc(F)c2)CC1 [Compound 59] | < 10 | < 10
56 | CCOC(=O)N[C@H]1CC[C@H](N/C(=N\C(=O)c2ccc(F)c(F)c2)NCc2ccc(F)cc2Cl)CC1 [Compound 60] | < 10 | < 10
57 | CCOC(=O)N[C@H]1CC[C@H](N/C(=N\C(=O)c2ccc(F)c(F)c2)NCc2ccc(F)c(Cl)c2)CC1 [Compound 61] | < 10 | < 10
58 | CCOC(=O)N[C@H]1CC[C@H](N/C(=N\C(=O)c2ccc(F)c(F)c2)NCc2ccc(Cl)c(F)c2)CC1 [Compound 62] | < 10 | < 10
59 | CCOC(=O)N[C@H]1CC[C@H](N/C(=N\C(=O)c2ccc(F)c(F)c2)NCc2ccc(Cl)cc2F)CC1 [Compound 63] | < 10 | < 10
